For one data set, the system named is P. aeruginosa persisters. Nature of the data set: Persister cell eradication: carbon sources plus tobramycin, survival by c.f.u. counting. The settings on record: for potentiation of tobramycin killing of persisters by carbon source (efficiency of tested metabolites): tobramycin 40 mg/l, carbon sources normalized to 60 mM carbon, M9 minimal media, ciprofloxacin-selected persisters; for potentiation of antibiotic efficacy / sensitization to aminoglycoside antibiotics: P. aeruginosa cells in various reduced metabolic states, in conjunction with aminoglycosides. The data set is classed as cell-based, Pseudomonas aeruginosa.

For data set [1], the system named is P. aeruginosa stationary phase cells. Nature of the data set: Stationary phase cells eradication: carbon sources plus tobramycin, survival by c.f.u. counting. Type of data set: cell-based, Pseudomonas aeruginosa. As for the experimental part: Cells from frozen stock were plated overnight at 37° C., following which a single colony forming unit (CFU) was grown in Luria-Bertani (LB) broth at 300 r.p.m. and 80% humidity to an optical density at 600 nm (OD600) of 0.3. Cells were then diluted 1:1,000 in 25 ml LB and grown for 16 h at 37° C., 300 r.p.m. and 80% humidity in 250 ml flasks. Cells were then washed (Spin 5000 rpm (Thermofisher centrifuge) for 15 mins. Samples were then washed with 20 ml of 1× filtered PBS (again spin 5000 rpm for 15 mins) and re-suspended in M9 minimal media. Carbon sources and antibiotics (tobramycin 40 mg/l) were added and samples were incubated at 37° C., 300 r.p.m. and 80% humidity At specified time points, 10-μl aliquots of cells were removed and washed with PBS, serially diluted and spot-plated onto LB agar plates to determine colony-forming units per ml (c.f.u. ml−1). The concentration of carbon sources were normalized to deliver 60 mM carbon (for example 10 mM glucose, 15 mM fumarate, 20 mM pyruvate etc.). Survivors were enumerated by plating 10 ul aliquots with serial dilutions taken from 1 ml spun down and PBS washed (remaining AB). […] Survival was determined by dividing the c.f.u. ml−1 of a sample at each time point by the initial c.f.u. ml−1 for that sample.

The conditions of data set [2]: i.v. administration; cited from earlier work.

Entries after “also recorded” stand apart in the source; their conditions may differ.

Results on seven molecules are retold here after patent US11382883B2, “Intermediate metabolism products to potentiate aminoglycoside antibiotics in bacterial infections” (TRUSTEES OF BOSTON UNIVERSITY, priority 2013, dated 2022).

Turning to `O=C(CO)[C@@H](O)[C@H](O)[C@H](O)CO` [Fructose, fructose], the “potentiation of tobramycin killing of persisters by carbon source (efficiency of tested metabolites)” value with P. aeruginosa persisters was “not efficient”.

As for `OC[C@@H](O)[C@@H](O)[C@H](O)[C@H](O)CO` [Mannitol, mannitol], the “potentiation of tobramycin killing of persisters by carbon source (efficiency of tested metabolites)” value with P. aeruginosa persisters is “not efficient”.

Turning to `O=C(O)/C=C/C(=O)O` [fumarate], the “killing with incremental doses of fumarate for a given dose of tobramycin” value in data set [1] (FIG. 2, tobramycin 40 mg/L) is given as “increased killing”. The “killing of P. aeruginosa in stationary phase by tobramycin” value in data set [1] (FIGS. 2A-2B) was “enables killing”. Further, in the data set with P. aeruginosa persisters, the “potentiation of antibiotic efficacy / sensitization to aminoglycoside antibiotics” value was “very strong results” and the “potentiation of tobramycin killing of persisters by carbon source (efficiency of tested metabolites)” value is recorded as “most potent”. As for `O=C(O)[C@H](O)[C@@H](O)[C@H](O)[C@H](O)CO` [gluconate], in the data set with P. aeruginosa persisters, the “potentiation of tobramycin killing of persisters by carbon source (efficiency of tested metabolites)” value was “variable levels of efficiency”.

For the molecule `CCC(=O)O` [propionate], in the data set with P. aeruginosa persisters, the “potentiation of antibiotic efficacy / sensitization to aminoglycoside antibiotics” value is recorded as “sensitize the bacterium to aminoglycoside antibiotics” and the “potentiation of tobramycin killing of persisters by carbon source (efficiency of tested metabolites)” value was “recapitulated this to some effect”. In the same order, the values of `O=C(O)CCC(=O)O` [succinate] are “very strong results” and “most potent”. For the molecule `NC[C@H]1O[C@H](O[C@H]2[C@H](O)[C@@H](O[C@H]3O[C@H](CO)[C@@H](O)[C@H](N)[C@H]3O)[C@H](N)C[C@@H]2N)[C@H](N)C[C@@H]1O` [tobramycin, reference compound], the “killing with incremental doses of tobramycin for a given fumarate” value in data set [1] (FIG. 2, administered with fumarate) is recorded as “increased killing; also recorded: higher killing”. In data set [2], the “typical peak serum concentration” value is recorded as 40 mg/L.
